From US20060046972A1, “Cytotoxic nucleoside analog compound 003 for treating cancer” (Parker Hughes Institute, priority 2004, published 2006)

Test system: DT40, chicken B lymphoma
Assay: DNA flow cytometry of cell cycle arrest, DT40
Format: cell-based
Conditions: 100 μM, 48 hour
Procedure: Exponentially growing tumor cells were cultured at 1×10^6 cells/ml in clonogenic medium (RPMI 1640 medium +1% penicillin/streptomycin +10% heat-inactivated fetal bovine serum, 2 mML-glutamine, and 10 mM Hepes buffer) in the presence or absence of 100 μM compound 003 for 48 hour at 37° C., 5% CO2. At 48 h, cells were washed two times in fresh clonogenic medium, trypsinized, fixed in ice cold ethanol and labeled with propidium iodide to quantify their DNA content, as described previously (See, for example, Navara, et al., 2001, Anticancer Drugs. 12:369). Quantitative DNA analysis was performed on a Becton Dickenson Calibur flow cytometer equipped with a Consort 40 computer using the COTFIT program, which includes CELLCY, a cell cycle distribution function that fits DNA content histograms and calculates-the percentages of cells in G, S, and GM phases of the cell cycle, as described, for example, in Uckun et al., 1996, J Biol Chem. 271, 6389.

Structure (SMILES): COC(=O)C(C)NP(=O)(OCC1OC(n2cc(C)c(=O)[nH]c2=O)CC1N=[N+]=[N-])Oc1ccc(OC)cc1 (stereo not shown) [Compound 003, 3′-azidothymidine 5′-[p-methoxyphenylmethoxyalaninyl phosphate]]
- cell cycle arrest: caused G2 arrest
